Results from publication PMC8842743 (Journal of Alzheimer's Disease Reports, 2022).

Test system: healthy subjects
Experiment: Clinical liver safety laboratory data over time
Assay type: in vivo, human
Settings: mean (SD)

What does the source list for `COc1cnc(C(=O)Nc2ccc(F)c([C@]34CN(c5ncc(F)cn5)C[C@H]3CSC(N)=N4)c2)cn1` [LY3202626]?
ALP (1 mg daily, Day 1 predose): 62.8 (7.6) U/L; ALT (1 mg daily, Day 1 predose): 19.0 (11.8) U/L; AST (1 mg daily, Day 1 predose): 18.4 (6.7) U/L; Albumin (1 mg daily, Day 1 predose): 43.9 (1.5) g/L; GGT (1 mg daily, Day 1 predose): 22.3 (14.8) U/L; Total Bilirubin (1 mg daily, Day 1 predose): 10.7 (2.8) umol/L; ALP (1 mg daily, Day 2): 62.2 (8.7) U/L; ALT (1 mg daily, Day 2): 18.9 (11.8) U/L; AST (1 mg daily, Day 2): 18.4 (6.5) U/L; Albumin (1 mg daily, Day 2): 43.8 (3.0) g/L; GGT (1 mg daily, Day 2): 21.8 (15.6) U/L; Total Bilirubin (1 mg daily, Day 2): 10.7 (2.6) umol/L; ALP (1 mg daily, Day 3): 62.3 (8.4) U/L; ALT (1 mg daily, Day 3): 18.7 (10.6) U/L; AST (1 mg daily, Day 3): 16.1 (4.7) U/L; Albumin (1 mg daily, Day 3): 43.1 (2.4) g/L; GGT (1 mg daily, Day 3): 20.9 (13.9) U/L; Total Bilirubin (1 mg daily, Day 3): 8.9 (2.3) umol/L; ALP (1 mg daily, Day 4): 64.7 (10.7) U/L; ALT (1 mg daily, Day 4): 20.4 (10.1) U/L; AST (1 mg daily, Day 4): 19.6 (5.5) U/L; Albumin (1 mg daily, Day 4): 44.0 (2.4) g/L; GGT (1 mg daily, Day 4): 21.4 (14.5) U/L; Total Bilirubin (1 mg daily, Day 4): 7.4 (4.2) umol/L; ALP (1 mg daily, Day 6): 61.0 (10.9) U/L; ALT (1 mg daily, Day 6): 18.9 (7.0) U/L; AST (1 mg daily, Day 6): 17.7 (4.8) U/L; Albumin (1 mg daily, Day 6): 43.1 (2.4) g/L; GGT (1 mg daily, Day 6): 19.4 (11.8) U/L; Total Bilirubin (1 mg daily, Day 6): 8.5 (4.5) umol/L; ALP (1 mg daily, Day 8): 62.4 (11.3) U/L; ALT (1 mg daily, Day 8): 20.8 (8.4) U/L; AST (1 mg daily, Day 8): 21.3 (13.2) U/L; Albumin (1 mg daily, Day 8): 44.1 (2.0) g/L; GGT (1 mg daily, Day 8): 18.8 (11.5) U/L; Total Bilirubin (1 mg daily, Day 8): 7.9 (5.0) umol/L; ALP (1 mg daily, Day 10): 62.6 (10.0) U/L; ALT (1 mg daily, Day 10): 24.6 (19.6) U/L; AST (1 mg daily, Day 10): 30.2 (39.0) U/L; Albumin (1 mg daily, Day 10): 43.3 (2.2) g/L; GGT (1 mg daily, Day 10): 18.7 (11.3) U/L; Total Bilirubin (1 mg daily, Day 10): 7.2 (2.1) umol/L; ALP (1 mg daily, Day 12): 62.1 (9.7) U/L; ALT (1 mg daily, Day 12): 24.2 (21.2) U/L; AST (1 mg daily, Day 12): 26.2 (29.7) U/L; Albumin (1 mg daily, Day 12): 43.2 (1.5) g/L; GGT (1 mg daily, Day 12): 18.0 (9.9) U/L; Total Bilirubin (1 mg daily, Day 12): 8.0 (2.8) umol/L; ALP (1 mg daily, Day 14): 61.3 (10.6) U/L; ALT (1 mg daily, Day 14): 22.8 (17.2) U/L; AST (1 mg daily, Day 14): 20.2 (13.1) U/L; Albumin (1 mg daily, Day 14): 43.6 (2.6) g/L; GGT (1 mg daily, Day 14): 18.0 (10.1) U/L; Total Bilirubin (1 mg daily, Day 14): 9.1 (2.7) umol/L; ALP (1 mg daily, Day 15): 59.6 (9.6) U/L; ALT (1 mg daily, Day 15): 20.8 (15.5) U/L; AST (1 mg daily, Day 15): 18.3 (9.7) U/L; Albumin (1 mg daily, Day 15): 42.6 (2.2) g/L; GGT (1 mg daily, Day 15): 18.2 (11.0) U/L; Total Bilirubin (1 mg daily, Day 15): 9.2 (2.5) umol/L; ALP (1 mg daily, Day 17): 63.9 (10.6) U/L; ALT (1 mg daily, Day 17): 23.2 (12.8) U/L; AST (1 mg daily, Day 17): 19.3 (6.0) U/L; Albumin (1 mg daily, Day 17): 46.0 (2.8) g/L; GGT (1 mg daily, Day 17): 20.1 (11.8) U/L; Total Bilirubin (1 mg daily, Day 17): 8.2 (4.0) umol/L; ALP (6 mg daily, Day 1 predose): 64.6 (16.9) U/L; ALT (6 mg daily, Day 1 predose): 17.6 (5.5) U/L; AST (6 mg daily, Day 1 predose): 18.9 (4.0) U/L; Albumin (6 mg daily, Day 1 predose): 45.0 (1.7) g/L; GGT (6 mg daily, Day 1 predose): 21.6 (10.7) U/L; Total Bilirubin (6 mg daily, Day 1 predose): 8.9 (3.6) umol/L; ALP (6 mg daily, Day 2): 66.4 (20.2) U/L; ALT (6 mg daily, Day 2): 17.8 (3.8) U/L; AST (6 mg daily, Day 2): 18.0 (3.0) U/L; Albumin (6 mg daily, Day 2): 45.8 (2.5) g/L; GGT (6 mg daily, Day 2): 21.7 (9.5) U/L; Total Bilirubin (6 mg daily, Day 2): 9.8 (4.5) umol/L; ALP (6 mg daily, Day 3): 65.8 (18.6) U/L; ALT (6 mg daily, Day 3): 18.9 (4.7) U/L; AST (6 mg daily, Day 3): 17.8 (2.9) U/L; Albumin (6 mg daily, Day 3): 46.3 (2.1) g/L; GGT (6 mg daily, Day 3): 22.3 (11.2) U/L; Total Bilirubin (6 mg daily, Day 3): 7.4 (3.1) umol/L; ALP (6 mg daily, Day 4): 67.8 (18.4) U/L; ALT (6 mg daily, Day 4): 20.9 (5.2) U/L; AST (6 mg daily, Day 4): 19.8 (4.7) U/L; Albumin (6 mg daily, Day 4): 47.0 (1.9) g/L; GGT (6 mg daily, Day 4): 24.0 (11.0) U/L; Total Bilirubin (6 mg daily, Day 4): 6.9 (2.4) umol/L; ALP (6 mg daily, Day 6): 63.9 (17.8) U/L; ALT (6 mg daily, Day 6): 18.9 (4.4) U/L; AST (6 mg daily, Day 6): 19.7 (4.9) U/L; Albumin (6 mg daily, Day 6): 45.3 (2.7) g/L; GGT (6 mg daily, Day 6): 22.0 (10.8) U/L; Total Bilirubin (6 mg daily, Day 6): 8.4 (4.0) umol/L; ALP (6 mg daily, Day 8): 64.6 (17.6) U/L; ALT (6 mg daily, Day 8): 18.6 (2.5) U/L; AST (6 mg daily, Day 8): 20.8 (6.2) U/L
